The values that follow come from US6399833B1, “Process for producing aryl vinyl sulfone solution and use thereof” (Sumitomo Chemical Company, Limited, priority 1998, dated 2002).

Data set [1] in a line: Stability of phenyl vinyl sulfone/acetonitrile solution, thermostatic bath at 40° C., analysed by gas chromatography. The format is physicochemical. As to conditions: 30% acetonitrile solution, stainless steel chip, nitrogen. On the procedure:
About 70 ml of a phenyl vinyl sulfone/acetonitrile solution (phenyl vinyl sulfone concentration, 30%) and a chip of stainless steel (20 mm×25 mm×2 mm) (assuming the storage in a stainless steel vessel) were put in a glass sample tube of 100 ml in volume, which was purged with nitrogen gas and then sealed with a tight stopper, followed by stability tests in a thermostatic bath at 40° C. The concentration of phenyl vinyl sulfone in the phenyl vinyl sulfone/acetonitrile solution was analyzed by gas chromatography.

Data set [2] in a line: Stability of phenyl vinyl sulfone solutions in various solvents, thermostatic bath at 40° C., analysed by gas chromatography. The format is physicochemical. The following applies: for Retention in DMF solution: N,N-dimethylformamide solution (30%); for Retention in ethanol solution: ethanol solution (10%); for Retention in MIK solution: methyl isobutyl ketone solution (30%); for Retention in MTBE solution: methyl t-butyl ether solution (10%); for Retention in toluene solution: toluene solution (30%). On the procedure:
About 35 ml of a phenyl vinyl sulfone solution and a chip of stainless steel (20 mm×25 mm×2 mm) (assuming the storage in a stainless steel vessel) were put in a glass sample tube of 50 ml in volume, which was purged with nitrogen gas and then sealed with a tight stopper, followed by stability tests in a thermostatic bath at 40° C. The results of retention when a toluene solution (concentration, 30%), a methyl isobutyl ketone solution (concentration, 30%), and a methyl t-butyl ether solution (concentration, 10%) were used as the phenyl vinyl sulfone solutions are shown in Table 2.
The concentration of phenyl vinyl sulfone in each solution was analyzed by gas chromatography. In the table, MIK refers to methyl isobutyl ketone; and MTBE, methyl t-butyl ether.
Stability tests were carried out in the same manner as described in Reference Example 3, except that an ethanol solution (concentration, 10%) and an N,N-dimethylformamide solution (concentration, 30%) were used as the phenyl vinyl sulfone solutions. In the table, DMF refers to N,N-dimethylformamide.

For data set [3] the following is noted: Aldrich Material Safety Data; cited from earlier work.

Turning to `C=CS(=O)(=O)c1ccccc1` [phenyl vinyl sulfone], the Retention in data set [1] (0 day) was determined as 100%; in data set [1] (30 days), 100%; in data set [1] (60 days), 99.9%; in data set [1] (90 days), 99.4%. Also, the “Appearance of solution on storage” value in data set [2] (DMF solution (30%), with the lapse of storage days) is on record as “yellow coloring was observed”. Moreover, the “Retention in DMF solution” value was 100% in data set [2] (0 day) and 99.0% in data set [2] (15 days). The “Retention in ethanol solution” value in data set [2] (0 day) amounted to 100%; in data set [2] (15 days) it was 83.8%. Moreover, the “Retention in MIK solution” value in data set [2] (0 day) was 100%; in data set [2] (15 days), 99.5%. The “Retention in MTBE solution” value in data set [2] (0 day) and in data set [2] (15 days) was 100% in each case. Further, the “Retention in toluene solution” value in data set [2] (0 day) and in data set [2] (15 days) was 100% throughout. For the same molecule, in data set [3], the Irritation entry is on record as “exhibit irritation”.
